Five compounds from US20170252367A1, “PHARMACEUTICAL COMPOSITIONS AND METHODS RELATING TO INHIBITING FIBROUS ADHESIONS OR INFLAMMATORY DISEASE USING LOW SULPHATE FUCANS” (ARC Medical Devices, Inc., priority 2004, published 2017) can be followed below.

This assay has as its system fibrous adhesions between the caecum and the sidewall. Put plainly: Rat caecal-sidewall surgical adhesion model, drug loaded hyaluronic acid film (Example 1). In kind it is in vivo. The following applies: for inhibition of all adhesions (zero on the Total Adhesion Value scale) in at least one test animal: agent administered to the cecal-sidewall site.

Counter-ions that a name gives are not always drawn.

Source text: In one embodiment, the efficacy of the given drug or drug combination can be assessed as a reduction of the average Total Adhesion Value (strength×area; “TAV”) of the drug or combination versus a given standard, for example a drug-loaded sodium hyaluronate film versus a sham or a sodium hyaluronate film alone in the rat cecal-sidewall model for surgical fibrous adhesions.
The rat caecal sidewall model of surgical adhesions was used to investigate the effect of administration of each agent discussed herein (hereafter referred to as the drug) for the prevention of post-surgical type of fibrous adhesions. In this model, rats were divided into groups of 4. After surgical trauma, the rats were either untreated, treated with crosslinked hyaluronic acid (HA) film, or crosslinked HA film containing drug at the following concentrations in the film (% w/w):
Animal Studies. […] Only animals that appeared grossly normal (i.e., showing a clean unruffled coat, bright clear eyes and an active posture) were used in the study. Animals were randomly assigned to treatment groups, weighed and anesthetized with isoflurane gas. The abdomen was shaved and cleaned with a skin-antibacterial cleanser (Steri-Stat 2%) and wiped with a chlorohexane soaked gauze. A nick was made in one of the tail veins to elicit a small amount of blood (<100 mL). A white blood cell count was performed on this blood sample. An antibiotic (40,000 IU/kg of depopenicillin) was injected into the right thigh and an analgesic (0.01 mg/kg of buprenorphine) was injected into the left thigh of each rat. A 4 cm incision was made in the skin beginning approximately 2 cm caudal to the linea alba while the muscle was tended with forceps. […] Scraping was in the opposite direction to which the blade was pointing. The scraped caecum was wrapped in saline-soaked gauze. Doynes were used to separate the peritoneal wall from the skin, and the peritoneal wall was inverted using the doynes to expose the inside of the wall. A rectangular injury roughly 1.2 cm by 1.8 cm was made by shallow incisions to the peritoneal wall. The top membrane and a layer of muscle tissue was removed using forceps. The caecum was stitched to the four corners of the rectangle using a 5-0 suture, and without tying off the top two stitches. A piece of film was placed onto the abraded rectangle and then the top two stitches were tied firmly. In the case of the untreated control group, no film was placed over the abraded site. The exposed organs were replaced in the abdomen in such a way as to prevent torsional stress on the intestines. […] A collar was placed around the neck of the animal to prevent it from interfering with the stitches. The rat was placed in a clean cage and warmed with a heating lamp until consciousness was regained.

Take `N.N.[Cl][Pt][Cl]` [cisplatin, Cisplatin]: the “inhibition of all adhesions (zero on the Total Adhesion Value scale) in at least one test animal” value (“inhibition of all adhesions” for short) was “completely inhibited fibrous adhesions”. Further, the “reduction in adhesion score versus control, one-tailed Student's t-test (p<0.05)” value (“reduction … (p<0.05)” for short) (2% w/w in HA film) is listed as “statistically significant”.
In the case of `CC[C@H]1OC(=O)[C@H](C)[C@@H](O[C@H]2C[C@@](C)(OC)[C@@H](O)[C@H](C)O2)[C@H](C)[C@@H](O[C@@H]2O[C@H](C)C[C@H](N(C)C)[C@H]2O)[C@](C)(O)C[C@@H](C)C(=O)[C@H](C)[C@@H](O)[C@]1(C)O` [erythromycin, Erythromycin], the “reduction … (p<0.05)” value (5% w/w in HA film) is given as “statistically significant”.
Turning to `CCOC(=O)[C@H](CCc1ccccc1)N[C@@H](C)C(=O)N1CCC[C@H]1C(=O)O` [enalapril maleate, Enalapril Maleate], the “reduction … (p<0.05)” value (5% w/w in HA film) is reported as “statistically significant”.
With `CN(Cc1cnc2nc(N)nc(N)c2n1)c1ccc(C(=O)N[C@@H](CCC(=O)O)C(=O)O)cc1` [methotrexate, Methotrexate], the “inhibition of all adhesions” value is on record as “completely inhibited fibrous adhesions”.
Take `CC(=O)O[C@@]12CO[C@@H]1C[C@H](O)[C@@]1(C)C(=O)[C@H](O)C3=C(C)[C@@H](OC(=O)[C@H](O)[C@@H](NC(=O)OC(C)(C)C)c4ccccc4)C[C@@](O)([C@@H](OC(=O)c4ccccc4)[C@H]21)C3(C)C` [docetaxel, Docetaxel]: the “inhibition of all adhesions” value is “completely inhibited fibrous adhesions”.
